This passage reports IC50 and Ki results from patent publication US20180265515A1 (Genentech, Inc., priority 2015, published 2018).

For test [1], the system named is JAK1-dependent STAT6 phosphorylation downstream of IL-13 stimulation in BEAS-2B human bronchial epithelial cells. In words: JAK1 pathway assay in BEAS-2B cells (IL-13 stimulated STAT6 phosphorylation, MSD). It counts as cell-based. Particulars: read-out: P-STAT6 BEAS2B + IL13 IC50. The essentials:
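BEAS-2B human bronchial epithelial cells, plated the day before in complete growth medium, were preincubated with compound for 1 hr at 37° C (0.2% DMSO final), then stimulated with IL-13 at its EC90 for 15 min. STAT6 phosphorylation in lysates was read by MSD; EC50 was taken as 50% inhibition versus DMSO control.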

The target of test [2] is T1, isolated recombinant JAK1 kinase domain (Homo sapiens, UniProt P23458).
T1 construct: The activity of the isolated recombinant JAK1 and JAK2 kinase domain was measured
T1 sequence (P23458 875-1153 limits assumed): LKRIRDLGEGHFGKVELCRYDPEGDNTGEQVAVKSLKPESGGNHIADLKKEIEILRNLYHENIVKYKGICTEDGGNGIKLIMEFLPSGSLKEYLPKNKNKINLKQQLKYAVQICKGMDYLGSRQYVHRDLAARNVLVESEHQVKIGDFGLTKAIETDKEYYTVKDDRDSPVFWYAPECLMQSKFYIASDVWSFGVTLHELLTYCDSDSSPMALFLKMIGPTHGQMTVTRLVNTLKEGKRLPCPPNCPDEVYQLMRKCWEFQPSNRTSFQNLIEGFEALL
As to the kind of experiment: JAK1 enzyme assay (Caliper LabChip, Ki). It counts as biochemical. Particulars: recombinant JAK1 kinase domain, 25 μM ATP. The essentials: (§1)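 Caliper LabChip read-out: fraction of FAM-labeled JAK3-derived peptide converted to phosphopeptide by isolated JAK1/JAK2 kinase domain. Reaction 30 min, 22° C; stopped with EDTA, 50 mM final. Ki via Morrison tight-binding model, Ki=Ki,app/(1+[ATP]/Km,app).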

Test [3] concerns the target T2, isolated recombinant JAK2 kinase domain (Homo sapiens, UniProt O60674).
T2 construct: The activity of the isolated recombinant JAK1 and JAK2 kinase domain was measured
In words: JAK2 enzyme assay (Caliper LabChip, Ki). Format: biochemical. The conditions noted are these: 25 μM ATP. The essentials: as §1

T2 sequence (O60674 849-1124 limits assumed): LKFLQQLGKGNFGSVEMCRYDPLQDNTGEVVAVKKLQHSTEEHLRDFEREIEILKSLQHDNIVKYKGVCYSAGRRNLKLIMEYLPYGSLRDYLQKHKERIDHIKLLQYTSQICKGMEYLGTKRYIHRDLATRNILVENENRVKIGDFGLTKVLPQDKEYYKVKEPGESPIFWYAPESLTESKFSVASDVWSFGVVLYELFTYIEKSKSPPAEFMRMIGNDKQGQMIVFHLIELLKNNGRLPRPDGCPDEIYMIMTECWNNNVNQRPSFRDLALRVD

As to `CC(C)Sc1ccc(OC(F)F)c(-c2nn(CC(=O)N3CCC(N(C)CC(=O)N(C)C)CC3)cc2NC(=O)c2cnn3cccnc23)c1` [Example 105, N-[3-[2-(difluoromethoxy)-5-isopropylsulfanyl-phenyl]-1-[2-[4-[[2-(dimethylamino)-2-oxo-ethyl]-methyl-amino]-1-piperidyl]-2-oxo-ethyl]pyrazol-4-yl]pyrazolo[1,5-a]pyrimidine-3-carboxamide], the 50% inhibitory concentration (IC50) (commonly the concentration that inhibits the measured activity by half) in test [1] turned out to be 72 nM. The inhibition constant Ki (usually a measure of affinity in units of concentration, obtained from inhibition or displacement) was determined as 0.43 nM in test [2] and 1.3 nM in test [3].

As for `CSc1ccc(OC(F)F)c(-c2nn(CC(=O)N3CC4CCN(C)C4C3)cc2NC(=O)c2cnn3cccnc23)c1` (stereo not drawn) [Example 34, N-[3-[2-(difluoromethoxy)-5-methylsulfanyl-phenyl]-1-[2-(1-methyl-2,3,3a,4,6,6a-hexahydropyrrolo[2,3-c]pyrrol-5-yl)-2-oxo-ethyl]pyrazol-4-yl]pyrazolo[1,5-a]pyrimidine-3-carboxamide], in test [1], the IC50 amounted to 5.3 nM. Besides, the Ki was 0.28 nM in test [2] and 0.3 nM in test [3].

On to `COC(=O)N1CCN(CC2CCN(C(=O)Cn3cc(NC(=O)c4cnn5cccnc45)c(-c4cc(SC5COC5)ccc4OC(F)F)n3)CC2)CC1` [Example 191, methyl 4-[[1-[2-[3-[2-(difluoromethoxy)-5-(oxetan-3-ylsulfanyl)phenyl]-4-(pyrazolo[1,5-a]pyrimidine-3-carbonylamino)pyrazol-1-yl]acetyl]-4-piperidyl]methyl]piperazine-1-carboxylate], for which the IC50 in test [1] was 49 nM. Moreover, the Ki in test [2] stood at 0.44 nM; in test [3], 1 nM.

On to `CSc1ccc(OC(F)F)c(-c2nn(CC(=O)N3CCC(N4CCOCC4CO)CC3)cc2NC(=O)c2cnn3cccnc23)c1` (stereo not drawn) [Example 85, N-[3-[2-(difluoromethoxy)-5-methylsulfanyl-phenyl]-1-[2-[4-[3-(hydroxymethyl)morpholin-4-yl]-1-piperidyl]-2-oxo-ethyl]pyrazol-4-yl]pyrazolo[1,5-a]pyrimidine-3-carboxamide], for which the IC50 in test [1] worked out at 110 nM. The Ki in test [2] was 0.33 nM; in test [3], 0.38 nM.

Regarding `CSc1ccc(OC(F)F)c(-c2nn(Cc3cn(C4CCN(C5COC5)CC4)nn3)cc2NC(=O)c2cnn3cccnc23)c1` [Example 90, N-[3-[2-(difluoromethoxy)-5-methylsulfanyl-phenyl]-1-[[1-[1-(oxetan-3-yl)-4-piperidyl]triazol-4-yl]methyl]pyrazol-4-yl]pyrazolo[1,5-a]pyrimidine-3-carboxamide], the IC50 in test [1] was found to be 22 nM. Further, the results for the Ki in test [2] and in test [3] were 0.32 nM and 0.14 nM, respectively.

In the case of `CSc1ccc(OC(F)F)c(-c2nn(CC(=O)N3CCC(N4CCOC[C@@H]4C)CC3)cc2NC(=O)c2cnn3cccnc23)c1` [Example 61, N-[3-[2-(difluoromethoxy)-5-methylsulfanyl-phenyl]-1-[2-[4-[(3S)-3-methylmorpholin-4-yl]-1-piperidyl]-2-oxo-ethyl]pyrazol-4-yl]pyrazolo[1,5-a]pyrimidine-3-carboxamide], in test [1], the 50% inhibitory concentration (IC50) stood at 13 nM. The figures for the Ki in test [2] and in test [3] were 0.25 nM and 0.48 nM, respectively.

In the case of `CSc1ccc(OC(F)F)c(-c2nn(CC(=O)N3CCC(N(C)CC(C)(C)C#N)CC3)cc2NC(=O)c2cnn3cccnc23)c1` [Example 26, N-[1-[2-[4-[(2-cyano-2-methyl-propyl)-methyl-amino]-1-piperidyl]-2-oxo-ethyl]-3-[2-(difluoromethoxy)-5-methylsulfanyl-phenyl]pyrazol-4-yl]pyrazolo[1,5-a]pyrimidine-3-carboxamide], in test [1], the IC50 is 12 nM. The Ki is 0.24 nM in test [2] and 0.39 nM in test [3].

On to `O=C(Nc1cn(CCN[C@H]2C[C@H](O)C2)nc1-c1cc(SC2COC2)ccc1OC(F)F)c1cnn2cccnc12` [Example 179, N-[3-[2-(difluoromethoxy)-5-(oxetan-3-ylsulfanyl)phenyl]-1-(2-[[trans-3-hydroxycyclobutyl]amino]ethyl)-1H-pyrazol-4-yl]pyrazolo[1,5-a]pyrimidine-3-carboxamide], for which the IC50 in test [1] is 26 nM. Moreover, the values for the Ki in test [2] and in test [3] were 0.74 nM and 0.59 nM, respectively.

Take `CSc1ccc(OC(F)F)c(-c2nn(CC(=O)N3CCC(CN4CCNCC4)CC3)cc2NC(=O)c2cnn3cccnc23)c1` [Example 95, N-[3-[2-(difluoromethoxy)-5-methylsulfanyl-phenyl]-1-[2-oxo-2-[4-(piperazin-1-ylmethyl)-1-piperidyl]ethyl]pyrazol-4-yl]pyrazolo[1,5-a]pyrimidine-3-carboxamide]: in test [1], the half-maximal inhibitory concentration (IC50) was 150 nM. Moreover, the values for the inhibition constant Ki in test [2] and in test [3] were 0.37 nM and 0.68 nM, respectively.

As for `CSc1ccc(OC(F)F)c(-c2nn(CC(=O)N3CCC(N4CC[S+]([O-])CC4)CC3)cc2NC(=O)c2cnn3cccnc23)c1` [Example 48, N-[3-[2-(difluoromethoxy)-5-methylsulfanyl-phenyl]-1-[2-oxo-2-[4-(1-oxo-1,4-thiazinan-4-yl)-1-piperidyl]ethyl]pyrazol-4-yl]pyrazolo[1,5-a]pyrimidine-3-carboxamide], the IC50 in test [1] worked out at 410 nM. The Ki in test [2] stood at 0.29 nM; in test [3], 0.44 nM.

On to `CC(C)Sc1ccc(OC(F)F)c(-c2nn(CC(=O)N3CCN(CCCO)CC3)cc2NC(=O)c2cnn3cccnc23)c1` [Example 126, N-[3-[2-(difluoromethoxy)-5-isopropylsulfanyl-phenyl]-1-[2-[4-(3-hydroxypropyl)piperazin-1-yl]-2-oxo-ethyl]pyrazol-4-yl]pyrazolo[1,5-a]pyrimidine-3-carboxamide], for which, in test [1], the IC50 is 43 nM. For the same compound, the Ki in test [2] came out at 0.37 nM; in test [3], 0.84 nM.

Consider `CC(C)(C#N)CNC1CCN(C(=O)Cn2cc(NC(=O)c3cnn4cccnc34)c(-c3cc(SC4CC4)ccc3OC(F)F)n2)CC1` [Example 167, N-[1-(2-[4-[(2-cyano-2,2-dimethylethyl)amino]piperidin-1-yl]-2-oxoethyl)-3-[5-(cyclopropylsulfanyl)-2-(difluoromethoxy)phenyl]-1H-pyrazol-4-yl]pyrazolo[1,5-a]pyrimidine-3-carboxamide], for which the IC50 in test [1] came to 11 nM. In addition, the Ki was found to be 0.28 nM in test [2] and 0.67 nM in test [3].

On to `O=C(Nc1cn(CCN[C@@H]2CCCOC2)nc1-c1cc(SC2COC2)ccc1OC(F)F)c1cnn2cccnc12` [Example 180, N-[3-[2-(difluoromethoxy)-5-(oxetan-3-ylsulfanyl)phenyl]-1-[2-[[(3R)-tetrahydropyran-3-yl]amino]ethyl]pyrazol-4-yl]pyrazolo[1,5-a]pyrimidine-3-carboxamide], for which, in test [1], the IC50 came to 14 nM. Further, the Ki in test [2] stood at 1 nM; in test [3] it was 0.76 nM.

As to `O=C(Nc1cn(CC(=O)N2CCC(CN3CCOCC3)CC2)nc1-c1cc(SC2COC2)ccc1OC(F)F)c1cnn2cccnc12` [Example 183, N-[3-[2-(difluoromethoxy)-5-(oxetan-3-ylsulfanyl)phenyl]-1-[2-[4-(morpholinomethyl)-1-piperidyl]-2-oxo-ethyl]pyrazol-4-yl]pyrazolo[1,5-a]pyrimidine-3-carboxamide], the IC50 in test [1] is 33 nM. Moreover, the Ki was found to be 0.65 nM in test [2] and 1.5 nM in test [3].

As for `N#CC1(CNC2CCN(C(=O)Cn3cc(NC(=O)c4cnn5cccnc45)c(-c4cc(SC5CC5)ccc4OC(F)F)n3)CC2)CC1` [Example 166, N-[1-[2-[4-[(1-cyanocyclopropyl)methylamino]-1-piperidyl]-2-oxo-ethyl]-3-[5-cyclopropylsulfanyl-2-(difluoromethoxy)phenyl]pyraxol-4-yl]pyrazolo[1,5-a]pyrimidine-3-carboxamide], the IC50 in test [1] amounted to 17 nM. Moreover, the figures for the Ki in test [2] and in test [3] were 0.29 nM and 0.72 nM, respectively.

`CSc1ccc(OC(F)F)c(-c2nn(CC(=O)N3CCN(CCCC#N)CC3)cc2NC(=O)c2cnn3cccnc23)c1` [Example 21, N-[1-[2-[4-(3-cyanopropyl)piperazin-1-yl]-2-oxo-ethyl]-3-[2-(difluoromethoxy)-5-methylsulfanyl-phenyl]pyrazol-4-yl]pyrazolo[1,5-a]pyrimidine-3-carboxamide]: the IC50 in test [1] amounted to 9.1 nM. The Ki in test [2] came to 0.27 nM; in test [3] it was 0.33 nM.

Consider `CSc1ccc(OC(F)F)c(-c2nn(CC(=O)N3CCC(CN4CCN(CC(=O)N(C)C)[C@H](C)C4)CC3)cc2NC(=O)c2cnn3cccnc23)c1` [Example 97, N-[3-[2-(difluoromethoxy)-5-methylsulfanyl-phenyl]-1-[2-[4-[[(3R)-4-[2-(dimethylamino)-2-oxo-ethyl]-3-methyl-piperazin-1-yl]methyl]-1-piperidyl]-2-oxo-ethyl]pyrazol-4-yl]pyrazolo[1,5-a]pyrimidine-3-carboxamide], for which the IC50 in test [1] stood at 30 nM. The Ki amounted to 0.38 nM in test [2] and 0.62 nM in test [3].

For the compound `CSc1ccc(OC(F)F)c(-c2nn(CC(=O)N3CCC(N4CCN(C)C(=O)C4)CC3)cc2NC(=O)c2cnn3cccnc23)c1` [Example 23, N-[3-[2-(difluoromethoxy)-5-methylsulfanyl-phenyl]-1-[2-[4-(4-methyl-3-oxo-piperazin-1-yl)-1-piperidyl]-2-oxo-ethyl]pyrazol-4-yl]pyrazolo[1,5-a]pyrimidine-3-carboxamide], the IC50 in test [1] worked out at 61 nM. The Ki in test [2] is 0.24 nM; in test [3] it was 0.31 nM.
